“And” between values parts separate entries of the source, which are not always exact repeats. Equal entries are not always repeated.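 48-hour exposure; five concentrations; linearly interpolated endpoints. GI50 = concentration required for 50% inhibition of growth.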 The source made the active and inactive calls. No stated cut-off is given here; in the data, active = GI50 up to about 1.1 µM and inactive = higher.
How the values were obtained:
Assay in all cases: NCI anticancer screen, dose series, 48 h
786-0 = test system: 786-0
ACHN = test system: ACHN
CAKI-1 = test system: CAKI-1
DU-145 = test system: DU-145
EKVX = test system: EKVX
HL-60 = test system: HL-60
HOP-62 = test system: HOP-62
K562 = test system: K562
LOX IMVI = test system: LOX IMVI
MCF7 = test system: MCF7
MDA-MB-231 = test system: MDA-MB-231
NCI/ADR-RES = test system: NCI/ADR-RES
PC-3 = test system: PC-3
SF-539 = test system: SF-539
SK-MEL-28 = test system: SK-MEL-28
SK-MEL-2 = test system: SK-MEL-2
SN12C = test system: SN12C
SR = test system: SR
TK-10 = test system: TK-10
T47D = test system: T47D

Measured: GI50

CN(C)S(=O)(=O)Nc1ccccn1
inactive: 786-0 > 100 µM | ACHN > 100 µM | CAKI-1 > 100 µM | DU-145 > 100 µM | EKVX > 100 µM | HL-60 > 100 µM | HOP-62 > 100 µM | K562 > 100 µM | LOX IMVI > 100 µM | MCF7 > 100 µM | MDA-MB-231 > 100 µM | NCI/ADR-RES > 100 µM | PC-3 > 100 µM | SF-539 > 100 µM | SK-MEL-28 > 100 µM | SK-MEL-2 > 100 µM | SN12C > 100 µM | SR > 100 µM | TK-10 > 100 µM

O=C1c2ccccc2C(=O)c2c(Nc3ccc4c5c(cccc35)C(=O)c3ccccc3-4)cccc21
inactive: 786-0 > 100 µM | ACHN > 100 µM | CAKI-1 > 100 µM | DU-145 > 100 µM | EKVX > 100 µM | HOP-62 > 100 µM | K562 > 100 µM | LOX IMVI > 100 µM | MDA-MB-231 > 100 µM | NCI/ADR-RES > 100 µM | PC-3 > 100 µM | SK-MEL-2 > 100 µM | SN12C > 100 µM | SR > 100 µM | T47D > 100 µM | TK-10 > 100 µM

CC(=O)OCC1OC(n2c(C)c(C)cc(C#N)c2=S)C(OC(C)=O)C(OC(C)=O)C1OC(C)=O (centres undefined)
inactive: 786-0 > 100 µM | ACHN > 100 µM | CAKI-1 > 100 µM | DU-145 > 100 µM | EKVX > 100 µM | HL-60 > 100 µM | HOP-62 > 100 µM and 91 µM | K562 > 100 µM | LOX IMVI > 100 µM | MCF7 > 100 µM | MDA-MB-231 > 100 µM | PC-3 > 100 µM | SF-539 > 100 µM | SK-MEL-28 > 100 µM | SK-MEL-2 > 100 µM and 72.1 µM | SN12C > 100 µM | SR > 100 µM | T47D > 100 µM | TK-10 > 100 µM

CCCCCC(=O)NC(=S)Nc1nnn[nH]1
inactive: 786-0 > 100 µM | ACHN > 10 µM | CAKI-1 > 100 µM | DU-145 > 100 µM | EKVX > 100 µM | HL-60 > 100 µM | HOP-62 > 100 µM | K562 > 100 µM | LOX IMVI > 100 µM | MCF7 > 100 µM | MDA-MB-231 > 100 µM | PC-3 > 100 µM | SF-539 > 100 µM | SK-MEL-28 > 100 µM | SK-MEL-2 > 100 µM | SN12C > 100 µM | SR > 100 µM | T47D > 100 µM | TK-10 > 100 µM

C=Cn1c([N+](=O)[O-])cnc1/C=C/c1ccc(C(=O)OCCN2CCOCC2)cc1
inactive: 786-0 > 100 µM | ACHN > 100 µM | CAKI-1 > 100 µM | DU-145 > 100 µM | EKVX > 100 µM | HOP-62 > 100 µM | K562 > 100 µM | LOX IMVI > 100 µM | MCF7 > 100 µM | MDA-MB-231 > 100 µM | NCI/ADR-RES > 100 µM | PC-3 > 100 µM | SF-539 > 100 µM | SK-MEL-28 > 100 µM | SK-MEL-2 > 100 µM | SN12C > 100 µM | T47D > 100 µM | TK-10 > 100 µM

CCOC(=O)c1c(SCCCN2CCCCC2)n(-c2ccccc2)c(=S)n(-c2ccccc2)c1=O
inactive: 786-0 3.87 µM | ACHN 20.6 µM | DU-145 16.4 µM | EKVX 27.8 µM | HL-60 2.62 µM | HOP-62 33 µM | K562 5.48 µM | MCF7 12.1 µM | MDA-MB-231 19.4 µM | PC-3 16.4 µM | SF-539 14.8 µM | SK-MEL-28 17.4 µM | SK-MEL-2 16.7 µM | SN12C 16.2 µM | SR 22 µM | T47D 16.7 µM | TK-10 20.6 µM

O=c1c(O)c(-c2ccccc2)oc2c(CP(=O)(O)O)cccc12
inactive: 786-0 > 100 µM | CAKI-1 > 100 µM | DU-145 > 100 µM | EKVX > 100 µM | HOP-62 8.55 µM | K562 > 100 µM | MCF7 > 100 µM | MDA-MB-231 > 100 µM | PC-3 > 100 µM | SF-539 > 100 µM | SK-MEL-2 > 100 µM | SN12C > 100 µM | SR > 100 µM | T47D > 100 µM | TK-10 > 100 µM

C/C=C1\CN2CCC34c5ccccc5N(C)C35OCC4(C(=O)OC)C1CC25 (centres undefined)
inactive: 786-0 76.2 µM | ACHN 90.4 µM | CAKI-1 99.3 µM | DU-145 74.6 µM | EKVX 77.1 µM | HL-60 15.2 µM | HOP-62 65.8 µM | K562 48.9 µM | LOX IMVI 14 µM | MCF7 40.7 µM | MDA-MB-231 > 100 µM | PC-3 27.9 µM | SF-539 83 µM | SK-MEL-28 27.7 µM | SK-MEL-2 42.2 µM | SN12C 75.7 µM | SR 26.2 µM | T47D 28.8 µM | TK-10 > 100 µM

N#Cc1ccccc1C#C/C=C\C#Cc1ccccn1
inactive: 786-0 20.3 µM | ACHN 29.6 µM | CAKI-1 21.8 µM | DU-145 28.6 µM | EKVX 22.9 µM | HL-60 6.71 µM | HOP-62 19 µM | MCF7 14.4 µM | NCI/ADR-RES 16.6 µM | PC-3 13.7 µM | SF-539 20.5 µM | SK-MEL-28 17.5 µM | SK-MEL-2 15 µM | SN12C 20.4 µM | SR 4.12 µM | T47D 20.8 µM | TK-10 30.9 µM

[N-]=[N+]=CC(=O)CCC(=O)N(c1ccccc1)c1ccccc1
inactive: 786-0 > 10 µM | ACHN > 10 µM | DU-145 > 10 µM | EKVX > 10 µM | HL-60 > 10 µM | HOP-62 > 10 µM | K562 > 10 µM | LOX IMVI > 10 µM | MCF7 > 10 µM | MDA-MB-231 > 10 µM | PC-3 > 10 µM | SF-539 > 10 µM | SK-MEL-28 > 10 µM | SK-MEL-2 6.98 µM | SN12C > 10 µM | SR > 10 µM | T47D > 10 µM | TK-10 > 10 µM

N#Cc1sc2nc3ccccc3n2c1N
inactive: 786-0 > 100 µM | ACHN 92.3 µM | CAKI-1 37.2 µM | DU-145 94.8 µM | EKVX 85.1 µM | HOP-62 84.5 µM | LOX IMVI 40.8 µM | MCF7 84.5 µM | MDA-MB-231 76.4 µM | NCI/ADR-RES > 100 µM | PC-3 73.6 µM | SF-539 55.3 µM | SK-MEL-28 > 100 µM | SK-MEL-2 26.1 µM | T47D 89.7 µM | TK-10 14.9 µM

C=C1C(=O)O[C@@H]2[C@H]1C[C@@H](O)[C@H](C)[C@@](O)(C(=O)/C=C/C)[C@H]2OC(=O)C(C)CC (some centres undefined)
inactive: 786-0 2.61 µM | ACHN 2.99 µM | CAKI-1 1.26 µM | DU-145 4.27 µM | EKVX 8.57 µM | HOP-62 21 µM | K562 2.28 µM | LOX IMVI 2.93 µM | MCF7 4.81 µM | MDA-MB-231 5.79 µM | NCI/ADR-RES 11 µM | PC-3 16.5 µM | SF-539 7.33 µM | SK-MEL-28 7.85 µM | SK-MEL-2 22.5 µM | SN12C 2.64 µM | T47D 5.7 µM | TK-10 3.37 µM

N#C/C=C\c1ccc(-c2cc(C(F)(F)F)cc(C(F)(F)F)c2)o1
inactive: 786-0 27.2 µM | ACHN > 100 µM | CAKI-1 35.3 µM | DU-145 > 100 µM | EKVX 34.1 µM | HL-60 17.7 µM | HOP-62 21.1 µM | K562 42.1 µM | LOX IMVI 38.7 µM | MCF7 71.8 µM | MDA-MB-231 36.8 µM | NCI/ADR-RES 41.6 µM | PC-3 > 100 µM | SF-539 10 µM | SK-MEL-28 45.3 µM | SK-MEL-2 15.6 µM | SN12C 35.6 µM | SR 19.3 µM

O=C(O)Cc1cccc2c(=O)c3cccc([N+](=O)[O-])c3oc12
inactive: 786-0 > 100 µM | ACHN > 100 µM | CAKI-1 > 100 µM | DU-145 > 100 µM | EKVX > 100 µM | HL-60 > 100 µM | HOP-62 > 100 µM | K562 > 100 µM | LOX IMVI > 100 µM | MCF7 > 100 µM | MDA-MB-231 > 100 µM | PC-3 > 100 µM | SF-539 > 100 µM | SK-MEL-28 > 100 µM | SK-MEL-2 > 100 µM | SN12C > 100 µM | SR > 100 µM | T47D > 100 µM | TK-10 > 100 µM

CC(=O)C(CN1C(=O)c2ccccc2C1=O)C(C)=O
inactive: 786-0 > 100 µM | ACHN > 100 µM | CAKI-1 > 100 µM | DU-145 > 100 µM | EKVX > 100 µM | HOP-62 > 100 µM | K562 > 100 µM | MCF7 > 100 µM | MDA-MB-231 > 100 µM | PC-3 > 100 µM | SF-539 > 100 µM | SK-MEL-28 > 100 µM | SK-MEL-2 > 100 µM | SN12C > 100 µM | T47D > 100 µM | TK-10 > 100 µM

Source: ChEMBL document CHEMBL1201862, “PubChem BioAssay data set” (2004)
